For experiment [1], the system named is bovine cartilage explants. Description: Mucopolysaccharide production (35 Sulfur uptake) in bovine cartilage explants. The class given is cell-based. As for the experimental part: Bovine cartilage explants were placed in culture including 10% FCS and Vitamin C. IL-1 was added to a test population and IL-1 was not added to control. Explants were cultured for 24 hours. Kuromanin chloride was then added to each culture. Mucopolysaccharides were measured using radioactive 35 Sulfur uptake.

Another experiment has as its system fibroblast cells. Description: Fibroblast cell proliferation. In kind it is cell-based. Conditions: for cell proliferation: fibroblasts. As for the experimental part: For completeness, the relationship between a saccharide (dextrose) and TGF-β was also examined. Fibroblasts were treated with varying amounts of dextrose and measured for the release of TGF-β. […] It appeared that 0.5% glucose provided the greatest proliferation of fibroblasts.

“Also recorded” adds a separate entry of the source.

`OC[C@H]1O[C@@H](Oc2cc3c(O)cc(O)cc3[o+]c2-c2ccc(O)c(O)c2)[C@H](O)[C@@H](O)[C@@H]1O.[Cl-]` [Kuromanin chloride]: the production of mucopolysaccharides result in experiment [1] (bovine cartilage preincubated with IL-1) is recorded as “increased production of mucopolysaccharides; also recorded: increase of mucopolysaccharide”; in experiment [1] (control bovine cartilage explants, no IL-1, listed as kuromanin), “increase of mucopolysaccharide”; in experiment [1] (control bovine cartilage explants, no IL-1, listed as kuromanin chloride), “increased production of mucopolysaccharides”.
`O=C[C@H](O)[C@@H](O)[C@H](O)[C@H](O)CO` [glucose]: the “concentration providing the greatest proliferation of fibroblasts” value with fibroblast cells is 0.5%. The cell proliferation result is “did not” with fibroblast cells (higher concentrations of glucose) and “increased cell proliferation” with fibroblast cells (lower concentrations of glucose).

The record behind these values is patent publication US9987296B2, “Compositions including anthocyanin or anthocyanidin for the prevention or treatment of Articular cartilage-associated conditions” (priority 2008, dated 2018).
